According to US20110230465A1, “VIRAL POLYMERASE INHIBITORS” (BOEHRINGER INGLEHEIM INTERNATIONAL GMBH, priority 2009, published 2011):

Key:
[1] = system: HCV RNA replication in Huh-7 cells with a stable subgenomic HCV replicon (MP-1 cells); assay: microbe, parasite or virus in culture; format: cell-based; conditions: Hepatitis C virus, assay of Example 159A, read-out: EC50 (nM) Ex 159A (converted)
[2] = target: T1, hepatitis C virus RNA dependent polymerase (NS5B) (Hepatitis C virus genotype 1b, UniProt P26663); assay: Inhibition of NS5B RNA dependent RNA polymerase activity; format: biochemical; conditions: assay of Example 158A; read-out: IC50 (nM) Ex 158A (converted)
T1 construct: the RNA dependent RNA polymerase of HCV, specifically, the enzyme NS5B encoded by HCV
Experimental: Inhibition of NS5B RNA Dependent RNA Polymerase Activity
Representative compounds of the invention are tested for inhibitory activity against the hepatitis C virus RNA dependent polymerase (NS5B), using the assay described in WO2009/018657, herein incorporated by reference.

T1 sequence (P26663 2420-3010): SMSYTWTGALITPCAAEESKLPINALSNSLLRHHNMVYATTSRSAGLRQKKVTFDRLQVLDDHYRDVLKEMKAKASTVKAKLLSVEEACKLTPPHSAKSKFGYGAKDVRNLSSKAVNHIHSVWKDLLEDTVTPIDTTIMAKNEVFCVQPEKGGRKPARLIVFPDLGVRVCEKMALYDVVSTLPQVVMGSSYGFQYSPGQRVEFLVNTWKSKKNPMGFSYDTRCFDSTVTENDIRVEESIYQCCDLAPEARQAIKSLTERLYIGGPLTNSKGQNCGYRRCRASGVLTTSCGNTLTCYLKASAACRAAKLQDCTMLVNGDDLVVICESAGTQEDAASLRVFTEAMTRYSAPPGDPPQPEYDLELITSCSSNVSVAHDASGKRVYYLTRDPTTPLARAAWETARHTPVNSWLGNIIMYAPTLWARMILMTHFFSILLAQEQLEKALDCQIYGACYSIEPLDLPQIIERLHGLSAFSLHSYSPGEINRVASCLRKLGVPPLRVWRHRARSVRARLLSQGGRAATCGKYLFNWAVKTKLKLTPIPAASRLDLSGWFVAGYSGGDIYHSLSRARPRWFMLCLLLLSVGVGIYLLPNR

Work on Cc1ncccc1NC(=O)c1ccc(Oc2ccc3c(c2)c(=O)ncn3Cc2c(F)cc(F)cc2F)c(C(F)(F)F)c1 [Compound 6047] yielded an EC50 [1] of 10 nM and an IC50 [2] of 15 nM.
With O=c1ncn(Cc2c(F)cc(F)cc2F)c2ccc(O[C@H]3CC[C@H](CO)CC3)cc12 [Compound 2061] the EC50 [1] was 2500 nM and the IC50 [2] was 530 nM.
COCCOc1ccnc(Oc2ccc3c(c2)c(=O)ncn3Cc2c(F)cc(F)cc2F)c1C(F)(F)F [Compound 4003] gave an EC50 [1] of 61 nM and an IC50 [2] of 67 nM.
For CN(C)C(=O)c1cccc(Oc2ccc3c(c2)c(=O)ncn3Cc2c(F)cc(F)cc2F)c1 [Compound 7034], the EC50 [1] was 5700 nM and the IC50 [2] was 4900 nM.
CCc1nc(=O)c2cc(Oc3ncccc3C(F)(F)F)ccc2n1-c1cccnc1-c1ccc(C)cc1F [Compound 8011] showed an EC50 [1] of 4800 nM and an IC50 [2] of 34500 nM.
N#Cc1cc(-c2cccc(Oc3ccc4c(c3)c(=O)ncn4Cc3c(F)cc(F)cc3F)c2C(F)(F)F)cnc1N [Compound 9026] showed an IC50 [2] of 28 nM.
With NC(=O)Cc1cccc(Oc2ccc3c(c2)c(=O)ncn3Cc2c(F)cc(F)cc2F)c1C(F)(F)F [Compound 6036] the EC50 [1] was 60 nM and the IC50 [2] was 18 nM.
Cc1nc(-c2cccc(Oc3ccc4c(c3)c(=O)ncn4[C@H](C)c3c(F)cc(F)cc3F)c2C(F)(F)F)ncc1N [Compound 9025] showed an IC50 [2] of 14 nM.
CN(C)c1cc2c(cc1Oc1ncccc1C(F)(F)F)c(=O)ncn2Cc1ccc(F)cc1F [Compound 8009] was tested, and the EC50 [1] was greater than 10000 nM.
C[C@H](c1c(F)cc(F)cc1F)n1cnc(=O)c2cc(Oc3cccc(-c4ncc(N)cn4)c3C(F)(F)F)ccc21 [Compound 9011] showed an IC50 [2] of 7.8 nM.
For O=c1ncn(Cc2c(F)cc(F)cc2F)c2ccc(Oc3ncc(Cc4nn[nH]n4)cc3C(F)(F)F)cc12 [Compound 4020], the EC50 [1] was 5400 nM and the IC50 [2] was 78 nM.
For Cc1ccc(Cn2cnc(=O)c3cc(Oc4ccc(C(N)=O)cc4)ccc32)c(F)c1 [Compound 1030], the EC50 [1] was 8500 nM and the IC50 [2] was 610 nM.
O=c1ncn(Cc2c(F)cc(F)cc2F)c2ccc(Oc3cccc(-c4cccc5[nH]ccc45)c3C(F)(F)F)cc12 [Compound 9016] was tested, and the EC50 [1] was 2.2 nM and the IC50 [2] was 25 nM.
With CCNc1ccc(-c2cccc(Oc3ccc4c(c3)c(=O)ncn4[C@H](C)c3c(F)cc(F)cc3F)c2C(F)(F)F)cn1 [Compound 9001] the IC50 [2] was 23 nM.
O=c1ncn(Cc2c(F)cc(F)cc2F)c2ccc(Oc3cccc(-c4ccc5nonc5c4)c3C(F)(F)F)cc12 [Compound 9020] showed an EC50 [1] of 199 nM and an IC50 [2] of 107 nM.
O=c1ncn(Cc2ccc(F)cc2F)c2ccc(Oc3ncc(Cn4nccn4)cc3C(F)(F)F)cc12 [Compound 5001] gave an EC50 [1] of 470 nM and an IC50 [2] of 240 nM.
For Cc1ccc(-c2ncccc2-n2cnc(=O)c3cc(Oc4ncccc4C(F)(F)F)ccc32)cc1 [Compound 3090], the EC50 [1] was 82 nM and the IC50 [2] was 130 nM.
With Cc1c(-c2cccc(Oc3ccc4c(c3)c(=O)ncn4Cc3c(F)cc(F)cc3F)c2C(F)(F)F)cnn1-c1ccccc1 [Compound 9019] the EC50 [1] was 183 nM and the IC50 [2] was 51 nM.
C[C@H](c1c(F)cc(F)cc1F)n1cnc(=O)c2cc(Oc3cccc(-c4ccc(N)nc4)c3C(F)(F)F)ccc21 [Compound 9003] gave an EC50 [1] of 4 nM and an IC50 [2] of 18 nM.
For Cc1ccc(Cn2cnc(=O)c3cc(Oc4ncccc4C(F)(F)F)ccc32)c(-c2ccsc2)c1 [Compound 3052], the EC50 [1] was 210 nM and the IC50 [2] was 110 nM.
